# From patent US10869834B2, “Treatment of inflammatory bowel disease” (University College Dublin, National University of Ireland, …, priority 2016, dated 2020)
# Columns and labels:
# murine colitis (3% DSS) = experiment: In-vivo murine colitis model (3% DSS), administration of H2O2-producing bacteria; design: species or system mice
# Experimental: Wildtype mice were treated with 1×10^9 bacteria by daily oral gavage 5 days before, during colitis (3% DSS in water) and until the end of the experiment (day 16). On day 7 of DSS treatment, DSS was replaced with water to enable the healing process. […] One-way Anova with Tukey post-hoc test; **p=0.01, ***p=0.001.
# EPEC = settings: H2O2 released from Cos-NOX4 cells (not Cos-p22) for 3 h; separated by a filter
# Experimental: (§1) Cos-NOX4 and Cos-p22 cells in DMEM, 5% FBS (Cell Signal 18:69-82, 2006; J Biol Chem 283:35273-82, 2008; Mol Cell Biol 30:961-75, 2010) were seeded into the lower chamber of a Boyden chamber (pore width 0.4 μm) 48 h before the assay. Lactobacilli grown in DMEM were suspended in media onto the upper chamber. Co-culture was initiated for 3-4 h in DMEM, 5% FBS media followed by harvesting of bacteria on the filter for RNA isolation.
# C. rodentium [1] = settings: H2O2 generated by Cos-NOX4 cells vs Cos-p22 negative control; 4 h, DMEM; separated by a filter; n=4
# Experimental: as §1
# C. rodentium [2] = settings: single bolus of 1 mM H2O2 in DMEM, analysed 3 h later
# Experimental: (§2) Invasion and adhesion assays were performed as previously reported (Cell Host Microbe 12:47-59, 2012). Bacterial cell viability was assessed using the XTT (2,3-Bis-(2-Methoxy-4-Nitro-5-Sulfophenyl)-2H-Tetrazolium-5-Carboxanilide) assay. For in vitro experiments bacteria were exposed at time zero once to 0.7 mM H2O2, except for C. jejuni (5 mM), and analyzed after indicated time periods (up to 3 h, except C. jejuni up to 6 h).
# L. monocytogenes [3] = system: L. monocytogenes
# Experimental: as §2
# S. pneumoniae [4] = settings: 0.7 mM H2O2 for 3 h
# Experimental: as §2
# [5] = system: bacterial phosphotyrosine signalling; settings: H2O2 generated by colon cells, human biopsies and rabbit loop model during pathogen exposure; co-culture 3 h
# Experimental: Bacteria in RPMI 1640 containing 3% FBS (OD600=0.4; 10^7 bacteria, 1 ml) were incubated with HCT-8 cells at 37° C. in microaerophilic conditions with MOI 50. DPI pretreatment of HCT-8 cells was for 20 min (25 μM). Non-adherent bacteria were removed by centrifugation of media (3300 g, 5 min), and were used for immunoblotting. […] Exposure of bacteria to H2O2 released by Cos cells stable expressing the NOX4-p22^phox complex or as negative control Cos cells expressing only p22^phox was performed using Boyden chambers. Cells in DMEM, 10% FBS medium were seeded into the bottom chamber 24 h before start of the experiment and then moved to microaerophilic conditions for 3 h. Bacteria grown in microaerophilic conditions were resuspended in 5% O2 conditioned DMEM, 3-10% FBS medium, placed on top of the filter (3 μm pore size) and incubated for 3 h. Bacteria were harvested from the filter for analysis.
# Polarized In Vitro Organ Culture (pIVOC): pIVOC experiments of colon biopsies were performed as described (Cell Host Microbe 12:47-59, 2012). Bacterial infections were conducted using microaerophilic preconditioned media or buffers. L. monocytogenes was added at a final OD600=0.2 to the apical side of biopsies and H2O2 release was measured. Controls were either non-infected biopsies or biopsies pretreated with 20 μM DPI for 20 min before addition of C. jejuni or L. monocytogenes to the top chamber. […]
# L. monocytogenes [6] = settings: Cos-NOX4 cell-produced H2O2 vs Cos-p22
# Experimental: Exposure of bacteria to H2O2 released by Cos cells stable expressing the NOX4-p22^phox complex or as negative control Cos cells expressing only p22^phox was performed using Boyden chambers. Cells in DMEM, 10% FBS medium were seeded into the bottom chamber 24 h before start of the experiment and then moved to microaerophilic conditions for 3 h. Bacteria grown in microaerophilic conditions were resuspended in 5% O2 conditioned DMEM, 3-10% FBS medium, placed on top of the filter (3 μm pore size) and incubated for 3 h. Bacteria were harvested from the filter for analysis.
# C. rodentium [7] = experiment: C. rodentium infection of mice treated with L. johnsonii by oral gavage; type: in vivo, C57Bl/6 mice; settings: daily oral gavage with NCC533 or NCC9359 prior and during infection; 6 dpi
# Experimental: Cyba^flox/flox mice were bred to B6.SJL-Tg (Vil-cre) 997Gum/J mice (Jackson Laboratories) to generate mice with a targeted deletion of p22^phox in the epithelium of the small intestine and colon (p22ΔIEC). Mice were infected by oral gavage with 0.3 ml of an overnight culture of Luria Bertani broth containing 5×10^9 Citrobacter rodentium and analyzed at day 6 post infection. L. johnsonii NCC533/NCC9359 pretreatment and treatment: L. johnsonii NCC533 and NCC9359 strains were administered at a concentration of 10^9 CFU to WT mice via oral gavage starting 3 days prior C. rodentium inoculation and daily during C. rodentium infection. For histopathology Carnoy-fixed distal colons were embedded in paraffin and 5 μm sections were stained with hematoxylin and eosin (H&E).
# S. pneumoniae [8] = settings: bacteria pretreated with 0.7 mM H2O2 for 3 h
# Experimental: Biofilm was analyzed using SYTO9. Cultured bacteria were grown in microaerophilic conditions overnight. The bacterial culture was then adjusted to OD600=0.1 and 1 ml of this solution was added to an optical grade plastic bottom μ-plate 24 well. Bacteria were incubated for an additional 72 h in microaerophilic conditions. Bacteria were washed gently with autoclaved water to remove planktonic cells and fixed with 3% paraformaldehyde in PBS for 1 h. Images were then analyzed for total intensity of SYTO9 fluorescence over the imaged volumes using Fiji. Briefly, after staining with SYTO9, 50 independent 13.2 μm stacks of 60 images at a 0.22 μm Z resolution were imaged for all conditions. The mean fluorescence of the different slices in the stacks was measured and a standard deviation was computed from the aggregated data per slice.
# mucus secretion = settings: Birchenough G. et al., Science 352:1535-1542; cited from earlier work
# [9] = system: bacterial phosphotyrosine content; settings: 0.7 mM H2O2, 3 h; when iron is present; 5% O2
# Experimental: C. jejuni 81-176, L. monocytogenes EGDe and K. pneumoniae were grown microaerophilic to mid-log phase in minimal essential media. Bacteria were collected by centrifugation (5000 rpm, 10 min) and diluted to OD600=0.2 in MEM. Iron (II) sulfate (40 μM) was added as indicated and cultures were grown microaerophilic until OD600=0.5 was reached. To C. jejuni 81-176 cultures 5 mM H2O2 was added and the growth continued microaerophilic for 8 h. L. monocytogenes and K. pneumoniae cultures were exposed to 0.7 mM H2O2 for 3 h in microaerophilic conditions. Bacteria were then diluted to OD600=0.2, collected by centrifugation, washed twice with 25 mM Tris-HCl, resuspended in 30 μl Laemmli buffer and heated for 5 min at 95° C. Boiled samples were loaded on 10% SDS-PAGE gels, separated by electrophoresis and immunoblotted. The control samples followed an identical protocol without supplemental iron or added H2O2.
# [10] = daily oral gavage 5 days before, during colitis and until day 16
# [11] = bacteria pretreated with 0.7 mM H2O2 for 3 h
smiles,measurement,setting,value
"OO [H2O2, hydrogen peroxide]","recovery after insult (disease index, body weight)","murine colitis (3% DSS); daily administration, low nanomolar H2O2 (via NCC533, 1x10^9 bacteria oral gavage), DSS replaced with water on day 7",accelerates recovery after insult
same,inflammation (colon length as indicator),murine colitis (3% DSS); [10],downregulates inflammation
same,tissue restitution (H&E staining of colon day 11),murine colitis (3% DSS); [10],supports rapid tissue restitution
same,ler and escN expression in EPEC (qPCR),EPEC,Downregulation of LEE island genes
same,ler and escN expression in C. rodentium (qPCR),C. rodentium [1],Downregulation of LEE island genes
same,ler expression in C. rodentium (qPCR),C. rodentium [2],Downregulation of ler
same,bacterial viability after treatment,L. monocytogenes [3]; 0.7 mM H2O2 for 3 h,remained fully viable
same,adherence to HCT-8 colon cells,L. monocytogenes [3]; [11],reduced
same,invasion of HCT-8 colon cells,L. monocytogenes [3]; [11],reduced
same,bacterial viability after treatment,S. pneumoniae [4],remained fully viable
same,bacterial phosphotyrosine signalling (anti-phosphotyrosine immunoblots),[5],downregulates bacterial phosphotyrosine signalling
same,bacterial phosphotyrosine content (anti-phosphotyrosine immunoblot),L. monocytogenes [6],marked decrease in bacterial phosphotyrosine content
same,host epithelial tissue damage (H&E staining of colon sections),C. rodentium [7],required to prevent host epithelial tissue damage
same,biofilm formation (mean SYTO9 fluorescence),S. pneumoniae [8],Reduced biofilm formation
same,mucus secretion,mucus secretion,can restore mucus secretion
same,bacterial phosphotyrosine content (anti-phosphotyrosine immunoblots),[9],decreases bacterial phosphotyrosine content
